Results: patent publication US20170217946A1, “AMINO-SUBSTITUTED ISOXAZOLES” (Bayer Pharma Aktiengesellschaft, priority 2014, published 2017)

Test system: HeLa cells
Test: Proliferation assay (crystal violet)
Type: cell-based
Conditions: Homo sapiens, 96 h, 4 days incubation, read-out: Inhibition of proliferation HeLa IC50
Description: Cultivated tumor cells (cells were ordered from ATCC, except HeLa-MaTu and HeLa-MaTu-ADR, which were ordered from EPO-GmbH, Berlin) were plated at a density of 1000 to 5000 cells/well, depending on the growth rate of the respective cell line, in a 96-well multititer plate in 200 μL of their respective growth medium supplemented 10% fetal calf serum. After 24 hours, the cells of one plate (zero-point plate) were stained with crystal violet (see below), while the medium of the other plates was replaced by fresh culture medium (200 μl), to which the test substances were added in various concentrations (0 μM, as well as in the range of 0.001-10 μM; the final concentration of the solvent dimethyl sulfoxide was 0.5%). The cells were incubated for 4 days in the presence of test substances. Cell proliferation was determined by staining the cells with crystal violet: the cells were fixed by adding 20 μl/measuring point of an 11% glutaric aldehyde solution for 15 minutes at room temperature. After three washing cycles of the fixed cells with water, the plates were dried at room temperature. The cells were stained by adding 100 μl/measuring point of a 0.1% crystal violet solution (pH 3.0). After three washing cycles of the stained cells with water, the plates were dried at room temperature. The dye was dissolved by adding 100 μl/measuring point of a 10% acetic acid solution. Absorption was determined by photometry at a wavelength of 595 nm. The change of cell number, in percent, was calculated by normalization of the measured values to the absorption values of the zero-point plate (=0%) and the absorption of the untreated (0 μm) cells (=100%). The IC50 values were determined by means of a 4 parameter fit.

IC50	SMILES
940 nM	Cc1noc(Nc2cnc(C(F)(F)F)cn2)c1C(=O)Nc1ccc(F)c(F)c1 [Example 1c, N-(3,4-Difluorophenyl)-3-methyl-5-{[5-(trifluoromethyl)pyrazin-2-yl]amino}-1,2-oxazole-4-carboxamide]
1900 nM	Cc1noc(Nc2cnc(C(F)(F)F)cn2)c1C(=O)Nc1ccc(OC2CCN(CCC(F)(F)F)CC2)nc1 [Example 1a, 3-Methyl-5-{[5-(trifluoromethyl)pyrazin-2-yl]amino}-N-(6-{[1-(3,3,3-trifluoropropyl)-piperidin-4-yl]oxy}pyridin-3-yl)-1,2-oxazole-4-carboxamide]
3400 nM	Cc1noc(Nc2cnc(C(=O)NC3CCN(CC(F)F)CC3)cn2)c1C(=O)Nc1ccc(F)c(F)c1 [Example 1b, N-[1-(2,2-Difluoroethyl)piperidin-4-yl]-5-({4-[(3,4-difluorophenyl)carbamoyl]-3-methyl-1,2-oxazol-5-yl}amino)pyrazine-2-carboxamide]
